Tests used:
P2X7 [1] = target: T1, P2X7 (Homo sapiens (Human), UniProt Q99572); assay: Ca2+ flux (FLIPR) in 1321N1 cells expressing recombinant human P2X7 channel; format: cell-based; conditions: 250 μM BzATP;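 further: Calcium-4 dye-loaded cells exposed to compound for 30 min before agonist addition, fluorescence change read 180 s after agonist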
P2X7 [2] = target: T1, P2X7; assay: P2X7 antagonism in human PBMCs (LPS + Bz-ATP induced IL-1β release, ELISA); format: cell-based; conditions: LPS 30 ng/ml, Bz-ATP 0.5 mM; for PBMC 10 μM (% control): compound 10 μM; for PBMC 1 μM (% control): compound 1 μM;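 on all read-outs here: PBMCs from donor human blood, with a further 1.5 h incubation of the cells in the assay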
P2X7 [3] = target: T1, P2X7; assay: Radioligand binding, tritiated A-804598, human P2X7-1321N1 cell membranes; conditions: 1 hour at 4° C.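 Further: ki obtained from the binding IC50 after correction for tracer concentration and tracer affinity.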
Description: On the day of the experiment, cell membrane preparations were made according to standard published methods. […] The assay was terminated by filtration (GF/B filters pre-soaked with 0.3% PEI) and washed with washing buffer (Tris-HCl 50 mM). The IC50 generated in the binding assay was corrected for tracer concentration and affinity of the tracer to derive at the affinity (Ki) of the test compounds.

rat P2X7 = rat P2X7 (Rattus norvegicus (Rat), UniProt Q64663); assay: Ca2+ flux (FLIPR) in 1321N1 cells expressing recombinant rat P2X7 channel; format: cell-based; conditions: 250 μM BzATP;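 further: Calcium-4 dye fluorescence change read 180 s after agonist addition, following 30 min cell preincubation with test compound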
Chain of rat P2X7 (Q64663 whole entry): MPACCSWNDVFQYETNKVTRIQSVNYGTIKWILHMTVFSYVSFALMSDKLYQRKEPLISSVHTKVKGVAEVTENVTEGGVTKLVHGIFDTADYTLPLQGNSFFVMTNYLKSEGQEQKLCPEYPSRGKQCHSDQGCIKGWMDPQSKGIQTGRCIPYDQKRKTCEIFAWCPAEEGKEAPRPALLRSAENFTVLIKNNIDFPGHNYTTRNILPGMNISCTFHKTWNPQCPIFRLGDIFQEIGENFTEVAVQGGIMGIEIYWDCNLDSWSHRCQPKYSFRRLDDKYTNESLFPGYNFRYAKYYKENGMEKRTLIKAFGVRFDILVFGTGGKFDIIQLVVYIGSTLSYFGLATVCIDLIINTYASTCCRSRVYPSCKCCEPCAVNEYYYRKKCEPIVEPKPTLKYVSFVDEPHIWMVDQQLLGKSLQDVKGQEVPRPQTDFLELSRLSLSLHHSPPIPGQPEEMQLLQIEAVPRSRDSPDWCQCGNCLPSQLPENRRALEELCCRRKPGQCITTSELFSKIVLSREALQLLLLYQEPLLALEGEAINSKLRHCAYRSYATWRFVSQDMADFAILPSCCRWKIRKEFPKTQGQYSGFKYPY

T1 sequence (Q99572 whole entry): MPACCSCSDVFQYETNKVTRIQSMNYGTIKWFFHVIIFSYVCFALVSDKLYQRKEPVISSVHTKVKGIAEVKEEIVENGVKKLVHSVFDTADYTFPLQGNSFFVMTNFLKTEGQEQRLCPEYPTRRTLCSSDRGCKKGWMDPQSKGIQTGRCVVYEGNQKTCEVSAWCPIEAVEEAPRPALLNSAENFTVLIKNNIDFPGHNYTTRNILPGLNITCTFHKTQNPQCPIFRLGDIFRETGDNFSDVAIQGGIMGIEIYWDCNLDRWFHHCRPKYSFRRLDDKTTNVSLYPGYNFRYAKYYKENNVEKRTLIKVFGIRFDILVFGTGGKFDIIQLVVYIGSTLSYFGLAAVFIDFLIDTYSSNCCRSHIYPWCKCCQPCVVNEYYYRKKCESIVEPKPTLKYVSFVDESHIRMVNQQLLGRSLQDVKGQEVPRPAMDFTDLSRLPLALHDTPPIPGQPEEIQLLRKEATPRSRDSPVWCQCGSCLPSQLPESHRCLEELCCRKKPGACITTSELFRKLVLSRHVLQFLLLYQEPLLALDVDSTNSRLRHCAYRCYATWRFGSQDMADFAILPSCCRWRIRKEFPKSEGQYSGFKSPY

IC50 (P2X7 [1])	PBMC 10 μM (% control) (P2X7 [2])	Ki (P2X7 [3])	IC50 (rat P2X7)	PBMC 1 μM (% control) (P2X7 [2])	Structure (SMILES)
171 nM	−1.8 % control	398 nM	20200 nM		Cc1cc(C)nc(-n2nnc3c2CCN(C(=O)c2cccc(C(F)(F)F)c2Cl)C3C)c1 (centres unmarked) [Example 300, (2-chloro-3-(trifluoromethyl)phenyl)(1-(4,6-dimethylpyridin-2-yl)-4-methyl-6,7-dihydro-1H-[1,2,3]triazolo[4,5-c]pyridin-5(4H)-yl)methanone]
4.7 nM	−6.3 % control	6.3 nM	192 nM		CC1c2nnn(-c3ncccn3)c2CCN1C(=O)c1ccc(Cl)cc1Cl (centres unmarked) [Example 283, (2,4-dichlorophenyl)(4-methyl-1-(pyrimidin-2-yl)-6,7-dihydro-1H-[1,2,3]triazolo[4,5-c]pyridin-5(4H)-yl)methanone]
124 nM	11.6 % control	144 nM	9110 nM		Cc1cncc(-n2nnc3c2CCN(C(=O)c2cccc(C(F)(F)F)c2Cl)C3C)n1 (centres unmarked) [Example 251, (2-Chloro-3-(trifluoromethyl)phenyl)(4-methyl-1-(6-methylpyrazin-2-yl)-6,7-dihydro-1H-[1,2,3]triazolo[4,5-c]pyridin-5(4H)-yl)methanone]
16.9 nM	12.9 % control	18.2 nM	184 nM		O=C(c1cccc(C(F)(F)F)c1Cl)N1CCc2c(nnn2-c2ccn[nH]2)C1 [Example 68, 5-{[2-Chloro-3-(trifluoromethyl)phenyl]carbonyl}-1-(1H-pyrazol-5-yl)-4,5,6,7-tetrahydro-1H-[1,2,3]triazolo[4,5-c]pyridine]
7.2 nM	−0.4 % control	20 nM	10.2 nM		Cc1cccc(-n2nnc3c2CCN(C(=O)c2cccc(C(F)(F)F)c2Cl)[C@H]3C)n1 (single isomer, unassigned) [Example 227, (S*)-(2-chloro-3-(trifluoromethyl)phenyl)(4-methyl-1-(6-methylpyridin-2-yl)-6,7-dihydro-1H-[1,2,3]triazolo[4,5-c]pyridin-5(4H)-yl)methanone]
18.4 nM		87.1 nM	1940 nM	7.9 % control	O=C(c1cccc(C(F)(F)F)c1Cl)N1CCc2c(ncn2-c2ccccc2)C1 [Example 2, (2-Chloro-3-(trifluoromethyl)phenyl)(1-phenyl-6,7-dihydro-1H-imidazo[4,5-c]pyridin-5(4H)-yl)methanone]
3.3 nM	−3.7 % control	5.9 nM	11.1 nM		C[C@@H]1c2nnn(-c3ncccn3)c2CCN1C(=O)c1cccc(C(F)(F)F)c1F (single isomer, unassigned) [Example 271, (R*)-(2-fluoro-3-(trifluoromethyl)phenyl)(4-methyl-1-(pyrimidin-2-yl)-6,7-dihydro-1H-[1,2,3]triazolo[4,5-c]pyridin-5(4H)-yl)methanone]
156 nM		316 nM	107 nM	50.8 % control	CN(C)CC1c2ncn(-c3ccccn3)c2CCN1C(=O)c1cccc(C(F)(F)F)c1Cl (centres unmarked) [Example 31, 1-(5-{[2-Chloro-3-(trifluoromethyl)phenyl]carbonyl}-1-pyridin-2-yl-4,5,6,7-tetrahydro-1H-imidazo[4,5-c]pyridin-4-yl)-N,N-dimethylmethanamine]
27 nM	1.4 % control	35.5 nM	6930 nM		COc1cccnc1-n1nnc2c1CCN(C(=O)c1cccc(C(F)(F)F)c1Cl)C2C (centres unmarked) [Example 260, (2-Chloro-3-(trifluoromethyl)phenyl)(1-(3-methoxypyridin-2-yl)-4-methyl-6,7-dihydro-1H-[1,2,3]triazolo[4,5-c]pyridin-5(4H)-yl)methanone]
289 nM	−0.5 % control	372 nM	2160 nM		Cc1ccc(-n2nnc3c2CCN(C(=O)c2cccc(Cl)c2Cl)C3C)nc1 (centres unmarked) [Example 336, (2,3-dichlorophenyl)(4-methyl-1-(5-methylpyridin-2-yl)-6,7-dihydro-1H-[1,2,3]triazolo[4,5-c]pyridin-5(4H)-yl)methanone]
217 nM	−9.5 % control	631 nM	3720 nM		CCc1nc2c(n1-c1ccccc1)CCN(C(=O)c1cccc(Cl)c1Cl)C2 [Example 332, (2,3-dichlorophenyl)(2-ethyl-1-phenyl-6,7-dihydro-1H-imidazo[4,5-c]pyridin-5(4H)-yl)methanone]
85.5 nM		93.3 nM		71.7 % control	O=C(c1cccc(C(F)(F)F)c1Cl)N1CCc2c(nnn2-c2ccccc2OCCF)C1 [Example 126, (2-Chloro-3-(trifluoromethyl)phenyl)(1-(2-(2-fluoroethoxy)phenyl)-6,7-dihydro-1H-[1,2,3]triazolo[4,5-c]pyridin-5(4H)-yl)methanone]
8.6 nM	0.0 % control	39.8 nM			C[C@H]1Cc2c(nnn2-c2cc(F)ccn2)CN1C(=O)c1cccc(C(F)(F)F)c1Cl (single isomer, unassigned) [Example 199, (6S*)-5-{[2-Chloro-3-(trifluoromethyl)phenyl]carbonyl}-1-(4-fluoropyridin-2-yl)-6-methyl-4,5,6,7-tetrahydro-1H-[1,2,3]triazolo[4,5-c]pyridine]
180 nM	1.3 % control	631 nM			C[C@@H]1Cc2c(nnn2-c2cc(F)ccn2)CN1C(=O)c1cccc(C(F)(F)F)c1Cl (single isomer, unassigned) [Example 198, (6R*)-5-{[2-Chloro-3-(trifluoromethyl)phenyl]carbonyl}-1-(4-fluoropyridin-2-yl)-6-methyl-4,5,6,7-tetrahydro-1H-[1,2,3]triazolo[4,5-c]pyridine]
16.1 nM	−1.6 % control	55 nM			Cc1c(C(=O)N2CCc3c(ncn3-c3ccc(F)cn3)C2C)cccc1C(F)(F)F (centres unmarked) [Example 263, (1-(5-fluoropyridin-2-yl)-4-methyl-6,7-dihydro-1H-imidazo[4,5-c]pyridin-5(4H)-yl)(2-methyl-3-(trifluoromethyl)phenyl)methanone]
392 nM		275 nM		56.0 % control	Cn1nc(-c2ccccc2)c2c1CN(C(=O)c1cccc(Cl)c1Cl)CC2 [Example 103, 6-[(2,3-Dichlorophenyl)carbonyl]-1-methyl-3-phenyl-4,5,6,7-tetrahydro-1H-pyrazolo[3,4-c]pyridine]
19.4 nM	−3.1 % control	36.3 nM			CC1c2ncn(-c3ccc(F)cn3)c2CCN1C(=O)c1ccc(F)c(Cl)c1Cl (centres unmarked) [Example 261, (2,3-dichloro-4-fluorophenyl)(1-(5-fluoropyridin-2-yl)-4-methyl-6,7-dihydro-1H-imidazo[4,5-c]pyridin-5(4H)-yl)methanone]
8.6 nM	−1.3 % control	39.8 nM			CC1c2nnn(-c3ncco3)c2CCN1C(=O)c1cccc(C(F)(F)F)c1Cl (centres unmarked) [Example 250]
